Measurements taken from patent US5416209A, “5,6-dihydro-dibenz[b,e]azepine-6,11-dione-11-oximes” (Bayer Aktiengesellschaft, priority 1991, dated 1995).

tested on: HIV virus (HIV-infected normal human blood lymphocytes (PBLs) or alternatively H9 cells); assay: HIV infection in cell culture (inhibition of virus-induced syncytia); assay type: cell-based; conditions: Human immunodeficiency virus 1, 72 h, concentration at which 50% of the virus-induced syncytia are suppressed, day 3 to 6 after infection, 37° C.
Method: HIV infection in cell culture
The HIV test was carried out with slight modifications according to the method of Pauwels et al. [cf. Journal of Virological Methods 20, (1988), 309-321].
Normal human blood lymphocytes (PBLs) were concentrated by means of Ficoll-Hypaque and stimulated with phytohaemagglutinin (90 μg/ml) and interleukin-2 (40 U/ml) in RPMI 1640 and 20% foetal calf serum. For infection with the infectious HIV, PBLs were pelleted and the cell pellet was then suspended in 1 ml of HIV virus adsorption solution and incubated for 1 hour at 37° C.
Alternatively, HIV-susceptible H9 cells were employed instead of normal human blood lymphocytes for testing the antiviral effects of the compounds according to the invention.
The virus adsorption solution was centrifuged and the infected cell pellet was taken up in growth medium so that a concentration of 1×10^5 cells per ml was established. The cells infected in this way were pipetted into the wells of 96-well microtiter plates to give 1×10^4 cells/well.
The first vertical row of the microtiter plate contained only growth medium and cells which had not been infected, but otherwise treated exactly as described above (cell control). The second vertical row of the microtiter plate contained only HIV-infected cells (virus control) in growth medium. The other wells contained the compounds according to the invention in differing concentrations, starting from the wells of the 3rd vertical row of the microtiter plate, from which the test substances were diluted 2^10 times in 2-fold steps.
The test batches were incubated at 37° C. until, in the untreated virus control, the syncytia formation typical of HIV occurred (between day 3 and 6 after infection), which was then microscopically assessed. Under these test conditions, in the untreated virus control about 20-50 syncytia resulted, while the untreated cell control contained no syncytia.
The IC50 values were determined as the concentration of the treated and infected cells at which 50% (about 10-20 syncytia) of the virus-induced syncytia were suppressed by treatment with the compound according to the invention.

SMILES	IC50
Cc1ccnc2c1NC(=O)c1cccnc1N2C1CC1 [BIRG 587, reference compound]	90 nM
CCO/N=c1/c2cc(Cl)ccc2[nH]c(=O)c2ccccc12 [Example 4, (E) -2-Chloro-11-ethoxyimino-6-oxo-5,6-dihydro-11-H-dibenz [b,e]azepine]	60 nM
CON=c1c2cc(Cl)ccc2[nH]c(=O)c2ccccc12 [Example 6]	1500 nM
CCO/N=c1\c2cc(Cl)ccc2[nH]c(=O)c2ccccc12 [Example 8]	500 nM
O=c1[nH]c2ccc(Cl)cc2c(=NOCc2ccccc2)c2ccccc12 [Example 17]	700 nM
O=c1[nH]c2ccc(Cl)cc2c(=NOCc2c(F)c(F)c(F)c(F)c2F)c2ccccc12 [Example 18]	1000 nM
COC(=O)CON=c1c2cc(Cl)ccc2[nH]c(=O)c2ccccc12 [Example 24]	2300 nM
O=c1[nH]c2ccc(Cl)cc2c(=NOC2CCCCO2)c2ccccc12 (centres unmarked) [Example 31]	250 nM
